Data on two molecules can be found in paper PMC12115180 (Pharmaceuticals, 2025).

Read-outs that look alike come from different tables or passages of the source.

For series [1] the following is noted: Rabbit, average of n = 6; 0.5% 50 μL, 250 μg; cited from earlier work.
A short description of series [2]: Retinal delivery of rifampicin in rat after topical 0.25% eye drops. It is filed as in vivo, Sprague-Dawley rats. The method, then:
A single drop contained 5 μL of the above-described formulation, and the application of each drug drop was carried out at intervals of 30 min. After the eye drop application, euthanasia was performed using CO2 gas, and the retina was excised from each rat under a dissection microscope. In addition, “non-treated” negative controls were used, and the retina was excised from two rats without performing any treatments on the rats. The retina was placed in a 1.5 mL microcentrifuge tube (1 retina/tube) and was fully washed with DPBS. After completion of the washing procedures, the retinal tissues in the microcentrifuge tube were frozen in dry ice and then preserved for quantification by LC/MS analysis.

The nature of series [3]: Rat retina pharmacokinetics, single topical 0.25% rifampicin eye drop. Conditions: male, Sprague-Dawley, topical or ocular, 15 μL of 0.25% rifampicin eye drop. It counts as in vivo, Sprague–Dawley rats. The method, then: At time points of 1 h, 3 h, and 7 h after the application of the eye drops, euthanasia was performed using CO2 gas, and the retinal tissues were excised from the rats under a dissection microscope. In addition, “non-treated” negative controls were used, and the retina was excised from one rat without performing any treatments on the rat. The retina was placed in a 1.5-mL microcentrifuge tube (1 retina/tube) and was fully washed with DPBS. After completion of the washing procedures, the retinal tissues in the microcentrifuge tube were frozen in dry ice and then preserved for quantification by LC/MS analysis.

Series [4] relates to oxygen-induced retinopathy rat models. Briefly: Oxygen-induced retinopathy rat model, capillary count in histology sections. It is filed as in vivo, Sprague–Dawley rat. Conditions: SC injection 20 mg/kg once a day P15–P19, histology P20. The source says:
Oxygen-induced retinopathy rat models were produced according to the protocols of Yanni et al. (2010). Sprague–Dawley rat babies (and their nursing mothers) were exposed to a cycling oxygen environment (80% and 21%, about one day for each) for 15 days after starting from the day of birth (Day 0). On Day 15 (P15), the animals were moved to room air. […] On P20, all of the animals were euthanized by CO2 gas, and the retina was visualized as histology sections.

A short description of series [5]: Mouse sub-retina/sclera complex pharmacokinetics after SC injection. Conditions: single SC injection 0.7 mg/kg. It is filed as in vivo, C57BL/6J mice. The procedure: This effective dosage and administration route was evaluated in dose escalation studies by using the mouse laser-induced CNV model. The AUC reflects the exposure to the drug after administration of a dose of the drug and is expressed in hour · ng/mg tissue. The AUC is dependent on the dose administered as well as the rate of elimination of the drug from the tissue. The AUC is directly proportional to the dose when the drug follows linear kinetics, and AUC is inversely proportional to the clearance of the drug. In 1 h, 3 h, 6 h, and 18 h after the SC injection, eyeballs were extracted. Tissue from the retina, the sclera, and the sub-retina complex were isolated and extracted. These tissues were immediately frozen in liquid nitrogen. The tissue was subjected to LC/MS analysis for quantitation. The detection limit was 0.25 ng/g tissue.

Series [6] is described as follows: Non-GLP tox studies in rabbits, topical application. It counts as in vivo. The following applies: twice daily topical application of 1% rifampicin, 3-month dosing (Unpublished data).
Series [7] in a line: Human peak plasma exposure (package insert). It counts as in vivo. The following applies: 600 mg intravenous dose, calculated from package insert values.
On the set-up of series [8]: method as in WO 2023/234423 A1. Conditions: mouse, SC; ref WO 2023/234423 A1; cited from earlier work.
The subject of the next series is HUVEC. The following applies: in vitro; cited from earlier work.
Details of series [9]: method as in earlier work. Conditions: cited from earlier work.
Details of series [10]: method as in PMID 17995946. Conditions: typical six-month course for tuberculosis; cited from earlier work.
Series [11] deals with patients with Central Serous Chorioretinopathy (CSC). The following applies: cited from earlier work.
The subject of series [12] is mouse laser-induced CNV model. Briefly: Mouse laser-induced CNV model.

Consider `C[C@@H]1C[C@H]2[C@@H]3CCC4=CC(=O)C=C[C@]4(C)[C@@]3(F)[C@@H](O)C[C@]2(C)[C@@]1(O)C(=O)CO` [Dexamethasone], for which the “Drug Amount Detected in Retina” value in series [1] was 33 ng/ 1 g of retinal tissues (Rabbit, average of n = 6).
For `CO[C@H]1/C=C/O[C@@]2(C)Oc3c(C)c(O)c4c(O)c(c(/C=N/N5CCN(C)CC5)c(O)c4c3C2=O)NC(=O)/C(C)=C\C=C\[C@H](C)[C@H](O)[C@@H](C)[C@@H](O)[C@@H](C)[C@H](OC(C)=O)[C@@H]1C` [Rifampicin], the “Drug Amount Detected in Retina” value in series [2] (topical 0.25% 3 drops (15 μL, 37.5 μg)) is 1280 ng/ 1 g of retinal tissues (Rat) SE: 394.0348; in series [2] (topical 0.25% 10 drops (50 μL, 125 μg)), 2939 ng/ 1 g of retinal tissues (Rat) SE: 50.54. Moreover, the Tmax in series [3] was roughly 1 h. Further, the “Number of new capillaries on the retinal surface vs vehicle control” value in series [4] is given as “fewer than that in the control group”. Further, the “Peak concentration in mouse sub-retinal and scleral complex” value in series [5] was “approximately 0.03 ng/mg tissue weight”. Further, the “Peak concentration in mouse sub-retinal and scleral complex, calculated molar” value in series [5] is “roughly 0.04 µM”. For the same molecule, in [6], the “Toxicity on repeated topical application” value is recorded as “no toxicity”. Further, in series [7], the “Estimated serum concentration corresponding to peak plasma exposure” value is 12 to 23 µM. In addition, in series [8], the “Share of rifampicin in sub-retina and sclera complex delivered to the sub-retina” value is given as “approximately 70%”. In the series with HUVEC, the “Concentration required for statistically significant inhibition of HUVEC tube formation and proliferation” value is “approximately 30 µM”. Moreover, the Peak plasma exposure is given as 9 to 17 µg/mL in [9] (600 mg intravenous dose) and 4 to 32 µg/mL in series [9] (600 mg oral dose). In addition, in series [10], the Patients with hepatotoxicity entry is given as “up to 28%”. Moreover, the “Effect on CSC” value in series [11] (600 mg daily oral dose) is given as “improvements in CSC”. For the same molecule, the “Effect on visual acuity and macular thickness in CSC” value in [11] (daily oral dosage of 300 mg) was “improved visual acuity and macular thickness”. The “Inhibition of neovascularization in CNV model” value in [12] (SC injection 0.7 mg/kg once daily, 7 days after laser) is listed as “significantly inhibited neovascularization”. Further, the “Neovascularization inhibition level compared with intravitreal aflibercept” value in series [12] (SC injections at doses exceeding 0.7 mg/kg) was “equivalent to that achieved with intravitreal injection of aflibercept”. Moreover, the “Minimum effective dose for inhibiting neovascularization in subretinal tissues” value in series [12] (SC, dose escalation studies) was determined as 0.7 mg/kg. Further, the “Effective dosage in CNV model, times less than that of bacterial inhibition” value in [12] (vs 20 mg/kg effective systemic dosage for bacterial infection) is recorded as “approximately 30 times”.

The Tmax is the time at which the peak concentration occurs.
